Tested on: Purified human neutrophils
Test: Lucigenin dependent chemiluminescence assay (neutrophil respiratory burst / priming for F-met-leu-phe response)
Format: cell-based
Details: fMLP alone
Method: Purified human neutrophils were pretreated with peptide for 20 minutes before the addition of f-met-leu-phe. The lucigenin dependent chemiluminescence response, which reflects superoxide production, was then measured. The results obtained are set out in Table 2 and are expressed as mV of lucigenin dependent chemiluminescence and represent the maximal cell activity attained.
This experiment was repeated with peptides 304, 308 and 309.
The experiment was also conducted using peptides 393, 394, 395 and 396. […]
Results are expressed as mV of lucigenin dependent chemiluminescence and respresent peak of response i.e. the maximal cell activity attained.

CSCC[C@H](NC=O)C(=O)N[C@@H](CC(C)C)C(=O)N[C@@H](Cc1ccccc1)C(=O)O [fMLP, N-formyl-L-methionyl-L-leucyl-L-phenylalanine]
Chemiluminescence (Exp. 1): 1.53 mV
Chemiluminescence (Exp. 2): 3.53 mV
Chemiluminescence (Exp. 3): 1.96 mV

From patent publication EP0519976B1, “NEUTROPHIL STIMULATING PEPTIDES” (PEPTIDE TECHNOLOGY LTD, priority 1990, dated 1991)
